The subject of this assay is Plasmodium berghei. The assay is described as follows: Luciferase/luciferin-expressing antifolate-resistant parasites were used to infect a culture of HepG2 cells that were pre-incubated with compounds. Infected hepatocytes emit light due to the luciferase reaction. Assay results are presented as the percent inhibition of light emission compared to control. […]. The class given is functional. The following applies: sporozoite; for IC90: read-out: LUCIFERASE INFECTION ASSAY - IC90.

The IC50 is the point on the concentration scale where inhibition reaches its midpoint. Usually IC90 stands for the concentration at which the effect reaches the 90% level. In the case of `O=C(CN1CCCc2ccccc21)NC(=O)NCc1ccccc1`, the IC90 turned out to be 7.44 µM. Also, where the note is “PBLUC_HILL_SLOPE 112, PBLUC_R_SQUARED 0.458, read-out: LUCIFERASE INFECTION ASSAY - IC50”, the IC50 was 7.29 µM.
On to `NC(CCc1ccccc1)c1csc(Nc2ccc(C(F)(F)F)cn2)n1` (configuration not stated), for which the IC90 amounted to 4.5 µM. Besides, the IC50 (PBLUC_HILL_SLOPE 84.8, PBLUC_R_SQUARED 0.093, read-out: LUCIFERASE INFECTION ASSAY - IC50) was 4.38 µM.
`COc1ccc(CC(N)c2csc(NC(=O)Nc3ccccc3C(C)(C)C)n2)cc1` (configuration not stated): the IC90 turned out to be 4.27 µM. Moreover, the IC50 (PBLUC_HILL_SLOPE 104, PBLUC_R_SQUARED 0.386, read-out: LUCIFERASE INFECTION ASSAY - IC50) turned out to be 4.18 µM.
As for `Cc1nc(-c2ccccn2)nc(N(C)Cc2ccccc2)c1Cl`, the IC90 worked out at 3.5 µM. Further, the IC50 (PBLUC_HILL_SLOPE 72.3, PBLUC_R_SQUARED 0.385, read-out: LUCIFERASE INFECTION ASSAY - IC50) came out at 3.4 µM.
With `C=C(c1c[nH]c2ccccc12)c1c[nH]c2ccccc12`, the IC90 is more than 10 µM. Further, the IC50 (PBLUC_HILL_SLOPE 132, PBLUC_R_SQUARED 0.705, read-out: LUCIFERASE INFECTION ASSAY - IC50) stood at 9.85 µM.
As to `COc1cc(OC)nc(Nc2nc(C(N)C3CCCCC3)cs2)n1` (configuration not stated), the IC90 was more than 9.44 µM. For the setting “PBLUC_HILL_SLOPE 67.6, PBLUC_R_SQUARED 0.122, read-out: LUCIFERASE INFECTION ASSAY - IC50”, the IC50 was 9.15 µM.
`c1ccc(-c2cn3nc(NCC(c4cccs4)N4CCOCC4)sc3n2)cc1` (configuration not stated): the IC90 was found to be 6.67 µM. Also, the IC50 (PBLUC_HILL_SLOPE 82.8, PBLUC_R_SQUARED 0.111, read-out: LUCIFERASE INFECTION ASSAY - IC50) was 6.5 µM.
Turning to `CC(C)c1ccc(/C=C2\CCc3c2nc2ccccc2c3C(=O)O)cc1`, the IC90 came out at 0.0263 µM. For the same compound, the IC50 (PBLUC_HILL_SLOPE 81.7, PBLUC_R_SQUARED 0.0337, read-out: LUCIFERASE INFECTION ASSAY - IC50) was 0.0256 µM.
Turning to `CNc1snc(C)c1C(=O)OCCCOC(=O)c1c(C)nsc1NC`, the IC90 was 6.67 µM. The IC50 (PBLUC_HILL_SLOPE 109, PBLUC_R_SQUARED 0.523, read-out: LUCIFERASE INFECTION ASSAY - IC50) stood at 6.54 µM.
In the case of `CNC(=O)c1ccc(CN(C(=O)/C=C/c2ccc(-c3ccccc3F)s2)C2CC2)cc1`, the IC90 came out at 6.45 µM. Besides, the IC50 (PBLUC_HILL_SLOPE 95.6, PBLUC_R_SQUARED 0.262, read-out: LUCIFERASE INFECTION ASSAY - IC50) came out at 6.3 µM.
Take `C[C@H](Nc1ccc(C(F)(F)F)cc1[N+](=O)[O-])C(=O)Nc1nc2ccccc2[nH]1`: the IC90 is 6.29 µM. The IC50 (PBLUC_HILL_SLOPE 74.9, PBLUC_R_SQUARED 0.587, read-out: LUCIFERASE INFECTION ASSAY - IC50) stood at 6.11 µM.
As for `O=C(/C=C/c1cnn(Cc2ccccc2)c1)N1CCN(Cc2ccc(Cl)cc2)CC1`, the concentration for an effect of 90% (IC90) was 6.97 µM. In addition, the IC50 (PBLUC_HILL_SLOPE 126, PBLUC_R_SQUARED 0.0794, read-out: LUCIFERASE INFECTION ASSAY - IC50) was 6.85 µM.
`CCCCCCn1c(SCc2cc(=O)oc3cc(C)ccc23)nnc1-c1c[nH]c2ccccc12`: the IC90 was more than 10 µM. Where the note is “PBLUC_HILL_SLOPE 85.8, PBLUC_R_SQUARED 0.0287, read-out: LUCIFERASE INFECTION ASSAY - IC50”, the IC50 amounted to 9.99 µM.
In the case of `CC(Oc1ccc(C(=O)NCc2ccnc(N(C)C)c2)cn1)c1ccccc1` (configuration not stated), the IC90 turned out to be 6.11 µM. Also, for the setting “PBLUC_HILL_SLOPE 81.7, PBLUC_R_SQUARED 0.538, read-out: LUCIFERASE INFECTION ASSAY - IC50”, the IC50 turned out to be 5.95 µM.
With `c1ccc(Sc2ncnc3sccc23)nc1`, the IC90 is 6.79 µM. For the same compound, the IC50 (PBLUC_HILL_SLOPE 117, PBLUC_R_SQUARED 0.0329, read-out: LUCIFERASE INFECTION ASSAY - IC50) amounted to 6.66 µM.
With `CN(CC(=O)Nc1c(Cl)cccc1Cl)C(=O)c1cccc(Oc2cccc(C(F)(F)F)c2)c1`, the IC90 amounted to 6.4 µM. In addition, the IC50 (PBLUC_HILL_SLOPE 97.2, PBLUC_R_SQUARED 0.277, read-out: LUCIFERASE INFECTION ASSAY - IC50) is 6.26 µM.
`Cc1c(CN2CCN(c3ccccn3)CC2)noc1-c1ccc(F)cc1`: the IC90 came out at 3.45 µM. For the same compound, the IC50 (PBLUC_HILL_SLOPE 83.7, PBLUC_R_SQUARED 0.475, read-out: LUCIFERASE INFECTION ASSAY - IC50) was 3.36 µM.
Turning to `NC(=O)C(C(=O)/C=C/c1ccc(Cl)cc1)=C1SCS1`, the IC90 worked out at 4.75 µM. The IC50 (PBLUC_HILL_SLOPE 78.5, PBLUC_R_SQUARED 0.479, read-out: LUCIFERASE INFECTION ASSAY - IC50) came out at 4.62 µM.
With `CCOc1ccc(/C=C(/C(=O)NCc2ccc(F)cc2)c2nc3ccccc3[nH]2)cc1`, the IC90 was determined as 5.81 µM. Under “PBLUC_HILL_SLOPE 89.9, PBLUC_R_SQUARED 0.419, read-out: LUCIFERASE INFECTION ASSAY - IC50”, the IC50 stood at 5.67 µM.
Consider `CCCCc1ccc(N(C(=O)Nc2ccc(Cl)cc2)C2=NC(CC)CS2)cc1` (configuration not stated), for which the IC90 was more than 10 µM. For the same compound, under “PBLUC_HILL_SLOPE 93.6, PBLUC_R_SQUARED 0.111, read-out: LUCIFERASE INFECTION ASSAY - IC50”, the IC50 is 9.99 µM.
With `O=C(NCCC1=CCCCC1)Nc1ccc(OC(F)(F)F)cc1`, the IC90 is more than 10.1 µM. Further, under “PBLUC_HILL_SLOPE 77.5, PBLUC_R_SQUARED 0.175, read-out: LUCIFERASE INFECTION ASSAY - IC50”, the IC50 was more than 10.1 µM.
As for `O=C(NCCC(=O)N1CCc2sccc2C1c1ccccc1)c1ccsc1` (configuration not stated), the IC90 turned out to be 5.51 µM. Besides, for the setting “PBLUC_HILL_SLOPE 101, PBLUC_R_SQUARED 0.289, read-out: LUCIFERASE INFECTION ASSAY - IC50”, the IC50 was 5.39 µM.
Take `CN(Cc1ccc(C(=O)NC2CC2)cc1)c1ncccc1[N+](=O)[O-]`: the IC90 stood at 6.56 µM. In addition, the IC50 (PBLUC_HILL_SLOPE 96.1, PBLUC_R_SQUARED 0.262, read-out: LUCIFERASE INFECTION ASSAY - IC50) was determined as 6.41 µM.
As for `COc1ccc(/C=C2\N=C(SCC(=O)O)N(Cc3ccccc3)C2=O)cc1`, the IC90 came to 0.545 µM. Further, the IC50 (PBLUC_HILL_SLOPE 72.9, PBLUC_R_SQUARED 0.433, read-out: LUCIFERASE INFECTION ASSAY - IC50) amounted to 0.529 µM.
As to `CS(=O)(=O)NC1CCN(c2nc(-c3ccccn3)nc3sc(-c4ccccc4)cc23)CC1`, the IC90 was found to be 3.42 µM. Besides, for the setting “PBLUC_HILL_SLOPE 90.2, PBLUC_R_SQUARED 0.429, read-out: LUCIFERASE INFECTION ASSAY - IC50”, the IC50 was 3.34 µM.
Consider `CCn1c(NC(=O)Cc2c(Cl)cccc2Cl)nc2ccccc21`, for which the IC90 came to 6.27 µM. Also, the IC50 (PBLUC_HILL_SLOPE 118, PBLUC_R_SQUARED 0.0721, read-out: LUCIFERASE INFECTION ASSAY - IC50) came to 6.16 µM.
As to `Cc1cccc(Nc2ccccc2C(=O)OCC(=O)N2CCNC2=O)c1C`, the IC90 worked out at 7.08 µM. In addition, for the setting “PBLUC_HILL_SLOPE 113, PBLUC_R_SQUARED 0.339, read-out: LUCIFERASE INFECTION ASSAY - IC50”, the IC50 came out at 6.94 µM.
Take `C=CCN(c1ccccc1OC)S(=O)(=O)c1cccc(C(=O)Oc2c(Cl)cc(Cl)c3ccc(C)nc23)c1`: the IC90 stood at 6.11 µM. Further, for the setting “PBLUC_HILL_SLOPE 68.6, PBLUC_R_SQUARED 0.538, read-out: LUCIFERASE INFECTION ASSAY - IC50”, the IC50 was found to be 5.92 µM.
In the case of `COC(=O)c1occc1CSc1nc2ccc(Br)cc2c(=O)n1-c1ccccc1`, the IC90 is more than 10 µM. For the setting “PBLUC_HILL_SLOPE 130, PBLUC_R_SQUARED 0.0623, read-out: LUCIFERASE INFECTION ASSAY - IC50”, the IC50 stood at 10 µM.
In the case of `CCCn1c(N)c(C(=O)CNc2ccccc2N2CCCCCC2)c(=O)n(C)c1=O`, the IC90 is 5.69 µM. In addition, where the note is “PBLUC_HILL_SLOPE 99.9, PBLUC_R_SQUARED 0.404, read-out: LUCIFERASE INFECTION ASSAY - IC50”, the IC50 is 5.56 µM.
Regarding `O=C(NNC(=O)c1nn(-c2ccccc2)cc1O)c1ccc2c(c1)OCO2`, the IC90 amounted to 6.28 µM. Besides, the IC50 (PBLUC_HILL_SLOPE 71.1, PBLUC_R_SQUARED 0.59, read-out: LUCIFERASE INFECTION ASSAY - IC50) stood at 6.09 µM.
For `NC(=O)c1ccc(-c2cc(-c3cccc(C(F)(F)F)c3)cnc2N)cc1`, the IC90 came to 5.02 µM. For the same compound, the IC50 (PBLUC_HILL_SLOPE 80.6, PBLUC_R_SQUARED 0.104, read-out: LUCIFERASE INFECTION ASSAY - IC50) came out at 4.88 µM.
Regarding `Cc1ccc(C(C)C)cc1OCC(=O)N1CCC(C(=O)Nc2ccccc2O)CC1`, the IC90 stood at 4.58 µM. Besides, the IC50 (PBLUC_HILL_SLOPE 135, PBLUC_R_SQUARED 0.614, read-out: LUCIFERASE INFECTION ASSAY - IC50) came out at 4.51 µM.
Take `NC(Cc1ccc(F)cc1)c1csc(NC(=O)c2ccc(F)c(Cl)c2)n1` (configuration not stated): the IC90 came out at 5.68 µM. Further, the IC50 (PBLUC_HILL_SLOPE 84.1, PBLUC_R_SQUARED 0.0637, read-out: LUCIFERASE INFECTION ASSAY - IC50) is 5.54 µM.
As for `COc1cc(C(=O)Nc2ccc(Cn3cncn3)cc2)ccc1Oc1ccc(Cl)cc1[N+](=O)[O-]`, the IC90 amounted to 6.19 µM. Further, the IC50 (PBLUC_HILL_SLOPE 72.9, PBLUC_R_SQUARED 0.579, read-out: LUCIFERASE INFECTION ASSAY - IC50) came to 6.01 µM.
On to `CC(Sc1nc(-c2ccccc2)c(-c2ccccc2)o1)C(=O)NC1CC1` (configuration not stated), for which the IC90 was determined as 5.53 µM. Where the note is “PBLUC_HILL_SLOPE 75.9, PBLUC_R_SQUARED 0.255, read-out: LUCIFERASE INFECTION ASSAY - IC50”, the IC50 came out at 5.37 µM.

The values are drawn from ChEMBL document CHEMBL4483862, “Open-source discovery of chemical leads for next-generation chemoprotective antimalarials” (2018).
